Patent US8476315B2, “N-hydroxy C29-amide derivatives of oleandrane” (Onepharm Research & Development GmbH, priority 2009, dated 2013)

Assays:
TNFα = TNFα expression; assay type: cell-based
From the text: Accordingly, in a further embodiment of the present invention, there is included a method of treating inflammatory diseases comprising administering a TNFα-downregulating effective amount of a compound of the invention to a subject in need thereof. A person skilled in the art would be able to identify TNFα-downregulating compounds of the invention by contacting one or more cells with a compound of the invention and assaying for the presence of one TNFα and comparing the levels of TNFα in the one or more cells with that of controls. Such methods are known in the art and are described in the examples herein below.

CK-2 = conditions: 30 μM GA; cited from earlier work
[1] = tested on: murine retinal ganglion cells; conditions: cited from earlier work
11β-HSD2 = biological target: T1, 11β-HSD2 (Homo sapiens, UniProt P80365); experiment: 11β-HSD2 activity in lysates of stably transfected HEK-293 cells; assay type: biochemical; conditions: cell lysate
T1 construct: expressed in transfected cells
T1 sequence (P80365 1-405): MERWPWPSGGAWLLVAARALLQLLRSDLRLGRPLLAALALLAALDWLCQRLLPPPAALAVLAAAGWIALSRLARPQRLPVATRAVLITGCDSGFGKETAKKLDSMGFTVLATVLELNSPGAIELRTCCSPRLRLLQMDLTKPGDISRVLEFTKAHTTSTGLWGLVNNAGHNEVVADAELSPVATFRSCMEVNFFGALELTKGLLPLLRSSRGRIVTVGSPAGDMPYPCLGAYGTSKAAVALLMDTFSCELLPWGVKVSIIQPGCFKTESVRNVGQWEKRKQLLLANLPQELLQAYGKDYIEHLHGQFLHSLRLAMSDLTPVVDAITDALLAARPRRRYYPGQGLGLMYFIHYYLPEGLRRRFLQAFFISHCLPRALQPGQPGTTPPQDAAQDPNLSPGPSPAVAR
Procedure: (§1) Cell culture media were purchased from Invitrogen, Basel, Switzerland. [1,2,6,7-3H]-cortisol was from Amersham Pharmacia, Dubendorf, Switzerland. [1,2,6,7-3H]-cortisone was produced by incubating 1 mCi of [1,2,6,7-3H]-cortisol with 1 mg of lysate of HEK-293 cells expressing 11β-HSD2 in the presence of 1 mM NAD+. Incubation was for 16 h at 37° C. […] The product was run for a second chromatographic purification step on the same TLC system. […] All other chemicals were from Fluka AG, Buchs, Switzerland and were of the highest grade available.
HEK-293 cells were transfected with the plasmid for expression of carboxy-terminally FLAG-epitope tagged 11β-HSD1 or 11β-HSD2, respectively, that were described previously. […] Non-resistant cells were removed by replacing the cell culture medium every third day for 3 weeks. […]
(§2) Similarly, reductase activity was measured in a reaction containing NADPH, 30 nCi of [1,2,6,7-3H]-cortisone and unlabeled cortisone, whereby final concentrations were 400 μM NADPH and 10 nM cortisone. […] Activities were determined measuring the conversion of either radiolabeled cortisone or cortisol for 5-20 min using substrate concentrations in the range between 10 nM and 10 μM. 11β-HSD1 activities were measured immediately after cell disruption. […] Results are expressed as mean±S.D. and consist of at least three independent measurements.

11β-HSD1 = biological target: T2, 11β-HSD1 (Homo sapiens, UniProt P28845); experiment: 11β-HSD1 activity in lysates of stably transfected HEK-293 cells; assay type: biochemical; conditions: cell lysate
T2 construct: expressed in transfected cells
T2 sequence (P28845 whole entry): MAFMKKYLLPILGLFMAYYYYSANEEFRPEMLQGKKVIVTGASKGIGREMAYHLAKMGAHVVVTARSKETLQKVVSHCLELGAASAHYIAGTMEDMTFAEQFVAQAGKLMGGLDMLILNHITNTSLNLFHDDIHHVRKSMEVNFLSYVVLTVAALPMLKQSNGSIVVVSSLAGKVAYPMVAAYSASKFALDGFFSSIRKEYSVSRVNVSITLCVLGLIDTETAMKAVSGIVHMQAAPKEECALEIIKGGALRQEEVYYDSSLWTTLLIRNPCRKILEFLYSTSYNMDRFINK
Procedure: as §1
HEK-293 cells were transfected with the plasmid for expression of carboxy-terminally FLAG-epitope tagged 11β-HSD1 or 11β-HSD2, respectively, that were described previously. […] Non-resistant cells were removed by replacing the cell culture medium every third day for 3 weeks.
For determination of oxidative activity of 11β-HSD enzymes, cells were lysed by sonication and the cell lysate was diluted 1:12 in buffer TS2 (at 4° C.).
as §2

PKC and CK-I = conditions: GL (100 μM); cited from earlier work

Structure (SMILES) | IC50 (11β-HSD2) | IC50 (11β-HSD1) | further results
CC(=O)O[C@H]1CC[C@@]2(C)C(CC[C@]3(C)C2C(=O)C=C2C4C[C@@](C)(C(=O)NO)CC[C@]4(C)CC[C@]23C)C1(C)C (stereo partly drawn) [Compound 1, (3S,18R,20S)-3-(Acetyloxy)-N-hydroxy-11-oxo-olean-12-en-29-amide] |  |  | TNFα expression (TNFα): inhibit
CC1(C)[C@@H](O)CC[C@]2(C)[C@H]3C(=O)C=C4[C@@H]5C[C@@](C)(C(=O)O)CC[C@]5(C)CC[C@@]4(C)[C@]3(C)CC[C@@H]12 [GA, Glycyrrhetinic acid] |  |  | phosphorylation of C3α by CK-2 (CK-2): completely inhibited; postsynaptic light response [1]: 30 % of control
CON[C@H]1CC[C@@]2(C)C(CC[C@]3(C)C2C(=O)C=C2C4C[C@@](C)(C(=O)N(C)O)CC[C@]4(C)CC[C@]23C)C1(C)C (stereo partly drawn) [Compound 10, (3S,18R,20S)-N-Hydroxy-N-methyl-3-methoxamino-11-dioxo-olean-12-en-29-amide] | 547 nM | > 40000 nM | 
CC1(C)[C@@H](O[C@H]2O[C@H](C(=O)O)[C@@H](O)[C@H](O)[C@H]2O[C@@H]2O[C@H](C(=O)O)[C@@H](O)[C@H](O)[C@H]2O)CC[C@]2(C)[C@H]3C(=O)C=C4[C@@H]5C[C@@](C)(C(=O)O)CC[C@]5(C)CC[C@@]4(C)[C@]3(C)CC[C@@H]12 [GL, glycyrrhizin] |  |  | phosphorylation of HMGB1/2 by PKC and CK-I (PKC and CK-I): completely inhibits

More lines, main results first:

IC50 (11β-HSD2) | IC50 (11β-HSD1) | Structure (SMILES) | further results
2130 nM | 929 nM | CONC(=O)[C@@]1(C)CC[C@]2(C)CC[C@]3(C)C(=CC(=O)C4[C@@]5(C)CC[C@H](O)C(C)(C)C5CC[C@]43C)C2C1 (stereo partly drawn) [Compound 16, (3S,18R,20S)-3-Hydroxy-N-methoxy-11-oxo-olean-12-en-29-amide] | 
 | 1160 nM | CC1(C)C2CC[C@]3(C)C(C(=O)C=C4C5C[C@@](C)(C(=O)NO)CC[C@]5(C)CC[C@]43C)[C@@]2(C)CC[C@@H]1O (stereo partly drawn) [Compound 2, (3S,18R,20S)-3-Hydroxy-N-hydroxy-11-oxo-olean-12-en-29-amide] | inhibition at 1 µM (11β-HSD1; Concentration 1000 nmol/L, read-out: Reduction of 11β-HSD1 Activity (%) (average ± standard deviation)): 46.7 ± 13.8%
